Measurements reported in article PMC9907012, “Synthesis and characterisation of new antimalarial fluorinated triazolopyrazine compounds” (Beilstein Journal of Organic Chemistry, 2023).
Like-named read-outs stand apart in the source and are kept apart here.

Legend:
[1] = test system: P. falciparum 3D7 (chloroquine-sensitive strain); assay: In vitro anti-plasmodial image-based assay, P. falciparum 3D7; assay type: cell-based, Plasmodium falciparum; settings: for IC50 / inhibition at 80 µM: Plasmodium falciparum, 3D7; for IC50: 72 h incubation, read-out: Pf 3D7 IC50 ± SD; for SI for 3D7: SI = HEK293 IC50/parasite IC50; for inhibition at 80 µM: top dose of 80 µM, read-out: Pf 3D7 inhibition at the top dose (no IC50 given)
Description: (§1) S4: In vitro anti-plasmodial image-based assay
(§2) Plasmodium falciparum 3D7 and Dd2 parasites were cultured in RPMI1640 (Life Technologies, Camarillo, CA, USA) supplemented with 2.5 mg/mL Albumax II, 5% AB human serum, 25 mM HEPES, and 0.37mM hypoxanthine. Ring stage parasites were treated with compounds following two rounds of sorbitol synchronization, as previously described.
(§3) Following incubation of assay plates for 72 h at 37 °C, and 5% CO2 and 5% O2, parasites were stained with 2-(4-amidinophenyl)-1H-indole-6-carboxamidine (DAPI) and imaged using an Opera PhenixTM High Content Screening System (PerkinElmer, Waltham, MA, USA). Images were analysed using Harmony software (PerkinElmer, Waltham, MA, USA).
(§4) S5: In vitro cytotoxicity assay
(§5) Human embryonic kidney (HEK293) cells were maintained in DMEM (Life Technologies, Camarillo, CA, USA) containing 10% FBS (Hyclone™ ThermoFisher, Melbourne, Australia).
(§6) Cytotoxicity testing was undertaken, as previously described. In brief, 5 μL of test compound was added to the well of black/clear tissue culture-treated, 384-well plates containing 3000 adherent HEK 293 cells/well in 45 μL and incubated 72 h at 37 °C in 5% CO2.
(§7) After incubation, the supernatant was removed and replaced with 40 μL of 10% Alamar Blue per well. Plates were incubated for 5−6 h and measured for fluorescence at 530 -nm excitation and 595-nm emission. The % inhibition was calculated using 0.4% DMSO (no inhibition) and […]
(§8) IC 50 values were obtained by plotting % inhibition against log dose using GraphPad Prism v.6 (San Diego, CA, USA) nonlinear regression with a […]

[2] = test system: P. falciparum Dd2 (chloroquine, pyrimethamine and mefloquine drug-resistant strain); assay: In vitro anti-plasmodial image-based assay, P. falciparum Dd2; assay type: cell-based, Plasmodium falciparum; settings: for IC50 / inhibition at 80 µM: Plasmodium falciparum, DD2; for IC50: 72 h incubation, read-out: Pf Dd2 IC50 ± SD; for SI for Dd2: SI = HEK293 IC50/parasite IC50; for inhibition at 80 µM: top dose of 80 µM, read-out: Pf Dd2 inhibition at the top dose (no IC50 given)
Description: as §1, §2, §3, §4, §5, §6, §7, §8

[3] = test system: Plasmodium falciparum (Pf); settings: previous study; read-out: IC50 (antimalarial activity); cited from earlier work
[4] = values marked d are estimated IC50 as a plateau of inhibition was not reached

SMILES | IC50 [1, 4] | IC50 [2, 4] | melting point | IC50 ([1]; controls) | IC50 ([2]; controls) | SI for 3D7 [1] | SI for Dd2 [2] | IC50 [3] | inhibition at 80 µM [1] | inhibition at 80 µM [2]
FC(F)Oc1ccc(-c2nnc3cncc(Cl)n23)cc1 [Compound 1] | 45.2 ± 5.42 µM | 34.5 ± 4.46 µM | – | – | – | >2 | >2 | – | – | –
Clc1ccc(-c2nnc3cncc(Cl)n23)cc1 [Compound 2] | 18.9 ± 0.63 µM | 17.1 ± 0.43 µM | – | – | – | >4 | >4 | 12.6 µM | – | –
N#Cc1ccc(-c2nnc3cncc(Cl)n23)cc1 [Compound 3] | 35.5 ± 3.33 µM | 26.2 ± 1.01 µM | – | – | – | >2 | >3 | – | – | –
CCOc1cncc2nnc(-c3ccc(OC(F)F)cc3)n12 [Compound 7, 3-(4-(difluoromethoxy)phenyl)-5-ethoxy-[1,2,4]triazolo[4,3-a]pyrazine] | – | – | – | – | – | – | – | – | < 81% | < 81%
FC(F)c1ncc(OCCc2ccccc2)n2c(-c3ccc(Cl)cc3)nnc12 [Compound 15, 3-(4-Chlorophenyl)-8-(difluoromethyl)-5-phenethoxy-[1,2,4]triazolo[4,3-a]pyrazine] | 18.8 ± 0.21 µM | 14.3 ± 2.26 µM | – | – | – | >4 | >6 | – | – | –
N#Cc1ccc(-c2nnc3c(C(F)(F)F)ncc(OCCc4ccccc4)n23)cc1 [Compound 16, 4-(5-Phenethoxy-8-(trifluoromethyl)-[1,2,4]triazolo[4,3-a]pyrazin-3-yl)benzonitrile] | 22.5 ± 1.03 µM | 45.1 ± 6.58 µM | – | – | – | >4 | >2 | – | – | –
CC(F)(F)c1ncc(OCCc2ccccc2)n2c(-c3ccc(C#N)cc3)nnc12 [Compound 17, 4-(8-(1,1-Difluoroethyl)-5-phenethoxy-[1,2,4]triazolo[4,3-a]pyrazin-3-yl)benzonitrile] | – | – | – | – | – | – | – | – | < 33% | < 33%
N#Cc1ccc(-c2nnc3c(C(F)F)ncc(OCCc4ccccc4)n23)cc1 [Compound 18, 4-(8-(Difluoromethyl)-5-phenethoxy-[1,2,4]triazolo[4,3-a]pyrazin-3-yl)benzonitrile] | 31 ± 2.37 µM | 58.6 ± 1.68 µM | 109 to 111 °C | – | – | >3 | >1 | – | – | –
COc1ccc(C[C@H](N)C(=O)N[C@H]2[C@@H](O)[C@H](n3cnc4c(N(C)C)ncnc43)O[C@@H]2CO)cc1 [Puromycin, reference compound] | – | – | – | 0.079 ± 0.0057 µM | 0.102 ± 0.0095 µM | 127 | 98 | – | – | –
CCc1nc(N)nc(N)c1-c1ccc(Cl)cc1 [Pyrimethamine, reference compound] | – | – | – | 0.0152 ± 0.0012 µM | – | >657 | – | – | – | < 33%

The next lines start with results.

IC50 [1, 4] | IC50 [2, 4] | melting point | IC50 ([1]; controls) | IC50 ([2]; controls) | SMILES | SI for 3D7 [1] | SI for Dd2 [2] | IC50 [3] | inhibition at 80 µM [1] | inhibition at 80 µM [2]
0.24 ± 0.01 µM | 0.26 ± 0.01 µM | – | – | – | FC(F)Oc1ccc(-c2nnc3cncc(OCCc4ccccc4)n23)cc1 [Compound 4] | >329 | >312 | – | – | –
0.2 ± 0.02 µM | 0.22 ± 0.01 µM | 131 to 132 °C | – | – | Clc1ccc(-c2nnc3cncc(OCCc4ccccc4)n23)cc1 [Compound 5, 3-(4-chlorophenyl)-5-phenethoxy-[1,2,4]triazolo[4,3-a]pyrazine] | >396 | >364 | – | – | –
1.15 ± 0.05 µM | 1.17 ± 0.09 µM | 136 to 138 °C | – | – | N#Cc1ccc(-c2nnc3cncc(OCCc4ccccc4)n23)cc1 [Compound 6, 4-(5-phenethoxy-[1,2,4]triazolo[4,3-a]pyrazin-3-yl)benzonitrile] | >70 | >68 | – | – | –
2.72 ± 0.03 µM | 2.91 ± 0.18 µM | – | – | – | CCOc1cncc2nnc(-c3ccc(Cl)cc3)n12 [Compound 8, 3-(4-chlorophenyl)-5-ethoxy-[1,2,4]triazolo[4,3-a]pyrazine] | >29 | >27 | – | – | –
11.3 ± 1.45 µM | 17.1 ± 0.71 µM | – | – | – | FC(F)Oc1ccc(-c2nnc3c(C(F)(F)F)ncc(OCCc4ccccc4)n23)cc1 [Compound 10, 3-(4-(Difluoromethoxy)phenyl)-5-phenethoxy-8-(trifluoromethyl)-[1,2,4]triazolo[4,3-a]pyrazine] | >7 | >4 | – | – | –
16.4 ± 1.13 µM | 19.6 ± 0.42 µM | – | – | – | FC(F)Oc1ccc(-c2nnc3c(C(F)F)ncc(OCCc4ccccc4)n23)cc1 [Compound 12, 3-(4-(Difluoromethoxy)phenyl)-8-(difluoromethyl)-5-phenethoxy-[1,2,4]triazolo[4,3-a]pyrazine] | >5 | >4 | – | – | –
9.43 ± 0.44 µM | 10.2 ± 0.75 µM | – | – | – | FC(F)(F)c1ncc(OCCc2ccccc2)n2c(-c3ccc(Cl)cc3)nnc12 [Compound 13, 3-(4-Chlorophenyl)-5-phenethoxy-8-(trifluoromethyl)-[1,2,4]triazolo[4,3-a]pyrazine] | >9 | >8 | – | – | –
